pIC50: −log10 of the molar value.
Test system: IL-1β production in PMA-differentiated THP-1 cells
Assay: IL-1β production in PMA-differentiated THP-1 cells stimulated with gramicidin (hTHP-1 assay, 2% fetal bovine serum; Procedures 1-3)
Assay type: cell-based, human
Details: hTHP-1 assay containing 2% fetal bovine serum; class symbols; read-out: hTHP-1 IC50 (Average IC50 of compounds in hTHP-1 assay)
Method: The following protocol is suitable for testing the activity of the compounds disclosed herein.
Procedure 1: IL-1β Production in PMA-Differentiated THP-1 Cells Stimulated with Gramicidin
THP-1 cells were purchased from the American Type Culture Collection and sub-cultured according to instructions from the supplier. Cells were cultured in complete RPMI 1640 (containing 10% heat inactivated FBS, penicillin (100 units/ml) and streptomycin (100 μg/ml)), and maintained in log phase prior to experimental setup. Prior to the experiment, compounds were dissolved in dimethyl sulfoxide (DMSO) to generate a 30 mM stock. The compound stock was first pre-diluted in DMSO to 3, 0.34, 0.042 and 0.0083 mM intermediate concentrations and subsequently spotted using Echo550 liquid handler into an empty 384-well assay plate to achieve desired final concentration (e.g. 100, 33, 11, 3.7, 1.2, 0.41, 0.14, 0.046, 0.015, 0.0051, 0.0017 μM). DMSO was backfilled in the plate to achieve a final DMSO assay concentration of 0.37%. The plate was then sealed and stored at room temperature until required.
THP-1 cells were treated with PMA (Phorbol 12-myristate 13-acetate) (20 ng/ml) for 16-18 hours. On the day of the experiment the media was removed and adherent cells were detached with trypsin for 5 minutes. Cells were then harvested, washed with complete RPMI 1640, spun down, and resuspended in RPMI 1640 (containing 2% heat inactivated FBS, penicillin (100 units/ml) and streptomycin (100 μg/ml). The cells were plated in the 384-well assay plate containing the spotted compounds at a density of 50,000 cells/well (final assay volume 50 μl). Cells were incubated with compounds for 1 hour and then stimulated with gramicidin (5 μM) (Enzo) for 2 hours. Plates were then centrifuged at 340 g for 5 min. Cell free supernatant (40 μL) was collected using a 96-channel PlateMaster (Gilson) and the production of IL-1β was evaluated by HTRF (cisbio). The plates were incubated for 18 h at 4° C. and read using the preset HTRF program (donor emission at 620 nm, acceptor emission at 668 nm) of the SpectraMax i3x spectrophotometer (Molecular Devices, software SoftMax 6). A vehicle only control and a dose titration of CRID3 (100-0.0017 μM) were run concurrently with each experiment.
Procedure 2: IL-1β Production in PMA-Differentiated THP-1 Cells Stimulated with Gramicidin
THP-1 cells were purchased from the American Type Culture Collection and sub-cultured according to instructions from the supplier. Prior to experiments, cells were cultured in complete RPMI 1640 (containing 10% heat inactivated FBS, penicillin (100 units/ml) and streptomycin (100 μg/ml)), and maintained in log phase prior to experimental setup. Prior to the experiment THP-1 were treated with PMA (Phorbol 12-myristate 13-acetate) (20 ng/ml) for 16-18 hours. Compounds were dissolved in dimethyl sulfoxide (DMSO) to generate a 30 mM stock. On the day of the experiment the media was removed and adherent cells were detached with trypsin for 5 minutes. Cells were then harvested, washed with complete RPMI 1640, spun down, resuspended in RPMI 1640 (containing 2% heat inactivated FBS, penicillin (100 units/ml) and streptomycin (100 μg/ml). The cells were plated in a 384-well plate at a density of 50,000 cells/well (final assay volume 50 μl). Compounds were first dissolved in assay medium to obtain a 5× top concentration of 500 μM. 10 step dilutions (1:3) were then undertaken in assay medium containing 1.67% DMSO. 5× compound solutions were added to the culture medium to achieve desired final concentration (e.g. 100, 33, 11, 3.7, 1.2, 0.41, 0.14, 0.046, 0.015, 0.0051, […]). Final DMSO concentration was at 0.37%. Cells were incubated with compounds for 1 hour and then stimulated with gramicidin (5 μM) (Enzo) for 2 hours. Plates were then centrifuged at 340 g for 5 min. Cell free supernatant (40 μL) was collected using a 96-channel PlateMaster (Gilson) and the production of IL-1β was evaluated by HTRF (cisbio). […]

| pIC50 | SMILES |
| --- | --- |
| 7.40 to 8.10 | Cc1oc(S(N)(=O)=NC(=O)Nc2c(C(C)C)cc(F)cc2C(C)C)cc1C(C)(C)O (single isomer, unassigned) [Example 79] |
| 7.40 to 8.10 | Cc1oc(S(N)(=O)=NC(=O)Nc2c(C(C)C)cc(C#N)c(F)c2C(C)C)cc1C(C)(C)O (single isomer, unassigned) [Example 81] |
| 6.00 to 6.70 | Cc1oc(S(N)(=O)=NC(=O)Nc2c(C(C)C)cc(C#N)c(F)c2C(C)C)cc1C(C)(C)O (single isomer, unassigned) [Example 82] |
| 6.00 to 6.70 | Cc1sc(S(N)(=O)=NC(=O)Nc2c3c(cc4c2CCC4)CCC3)cc1C(C)(C)O (single isomer, unassigned) [Example 86] |
| 7.40 to 8.10 | CC(C)(O)c1csc(S(N)(=O)=NC(=O)Nc2c3c(c(Cl)c4c2CCC4)CCC3)c1 (single isomer, unassigned) [Example 89] |
| 6.00 to 6.70 | CC(C)(O)c1csc(S(N)(=O)=NC(=O)Nc2c3c(c(Cl)c4c2CCC4)CCC3)c1 (single isomer, unassigned) [Example 90] |
| 6.70 to 7.40 | CC(C)c1cc(C#N)c(F)c(C(C)C)c1NC(=O)N=S(N)(=O)c1cnc(C(C)(C)O)s1 (single isomer, unassigned) [Example 91] |
| 5.30 to 6.00 | CC(C)n1ccc(S(N)(=O)=NC(=O)Nc2c3c(cc4c2CCC4)CCC3)n1 (single isomer, unassigned) [Example 94] |
| 6.00 to 6.70 | CC(C)c1cc(OC(F)F)cc(C(C)C)c1NC(=O)N=S(N)(=O)c1sc(C(C)(C)O)cc1F (single isomer, unassigned) [Example 96] |
| 6.70 to 7.40 | CCc1cc(OC(F)F)cc(C(C)C)c1NC(=O)N=S(N)(=O)c1cnc(C(C)(C)O)s1 (single isomer, unassigned) [Example 97] |
| 4.52 to 5.30 | CCc1cc(OC(F)F)cc(C(C)C)c1NC(=O)N=S(N)(=O)c1cnc(C(C)(C)O)s1 (single isomer, unassigned) [Example 98] |
| 5.30 to 6.00 | CC(C)c1cc(OC(F)F)cc(C2CC2)c1NC(=O)N=S(N)(=O)c1cnc(C(C)(C)O)s1 (single isomer, unassigned) [Example 102] |
| 6.70 to 7.40 | CC(C)c1cc(F)cc(C(C)C)c1NC(=O)N=S(N)(=O)c1cnc(C(C)(C)O)s1 (single isomer, unassigned) [Example 103] |
| 6.00 to 6.70 | CC(C)c1cc(F)cc(C(C)C)c1NC(=O)N=S(N)(=O)c1cccc(C(C)(C)O)c1 (single isomer, unassigned) [Example 105] |
| 4.52 to 5.30 | CC(C)c1cc(F)cc(C(C)C)c1NC(=O)N=S(N)(=O)c1cccc(C(C)(C)O)c1 (single isomer, unassigned) [Example 106] |
| 4.52 to 5.30 | CC(C)c1c(F)c(C#N)cc(C2CC2)c1NC(=O)N=S(N)(=O)c1cnc(C(C)(C)O)s1 (single isomer, unassigned) [Example 107] |
| 6.70 to 7.40 | CC(C)c1c(F)c(C#N)cc(C2CC2)c1NC(=O)N=S(N)(=O)c1cnc(C(C)(C)O)s1 (single isomer, unassigned) [Example 108] |
| 6.70 to 7.40 | CC(C)c1cc(OC(F)F)cc(C(C)C)c1NC(=O)N=S(N)(=O)c1cnc(C(C)(C)O)s1 (single isomer, unassigned) [Example 111] |
| 5.30 to 6.00 | CC(C)(O)c1csc(S(N)(=O)=NC(=O)Nc2c3c(c(C#N)c4c2CCC4)CCC3)c1 (single isomer, unassigned) [Example 114] |
| 6.70 to 7.40 | CN(C)Cc1ccc(S(N)(=O)=NC(=O)Nc2c3c(cc4c2CCC4)CCC3)cc1 (single isomer, unassigned) [Example 117] |
| 5.30 to 6.00 | Cc1oc(S(N)(=O)=NC(=O)Nc2c3c(cc4c2CCC4C)CCC3)cc1C(C)(C)O (single isomer, unassigned) [Example 124] |
| 5.30 to 6.00 | Cc1oc(S(N)(=O)=NC(=O)Nc2c3c(cc4c2C(C)CC4)CCC3)cc1C(C)(C)O (single isomer, unassigned) [Example 126] |
| 6.00 to 6.70 | CC(C)(O)c1cccc(S(N)(=O)=NC(=O)Nc2c3c(c(F)c4c2CCC4)CCC3)c1 (single isomer, unassigned) [Example 128] |

Second part, the compound before the results:

| SMILES | pIC50 |
| --- | --- |
| Cc1oc(S(N)(=O)=NC(=O)Nc2c(C(C)C)cc(F)cc2C(C)C)cc1C(C)(C)O (single isomer, unassigned) [Example 80] | 6.00 to 6.70 |
| Cc1sc(S(N)(=O)=NC(=O)Nc2c3c(cc4c2CCC4)CCC3)cc1C(C)(C)O (single isomer, unassigned) [Example 85] | 7.40 to 8.10 |
| CC(C)(O)c1ccc(S(N)(=O)=NC(=O)Nc2c3c(cc4c2CCC4)CCC3)c(F)c1 (single isomer, unassigned) [Example 87] | 6.70 to 7.40 |
| CC(C)(O)c1ccc(S(N)(=O)=NC(=O)Nc2c3c(cc4c2CCC4)CCC3)c(F)c1 (single isomer, unassigned) [Example 88] | 5.30 to 6.00 |
| CC(C)c1cc(C#N)c(F)c(C(C)C)c1NC(=O)N=S(N)(=O)c1cnc(C(C)(C)O)s1 (single isomer, unassigned) [Example 92] | 5.30 to 6.00 |
| CC(C)c1cc(OC(F)F)cc(C(C)C)c1NC(=O)N=S(N)(=O)c1sc(C(C)(C)O)cc1F (single isomer, unassigned) [Example 95] | > 8.10 |
| Cc1cc(C(C)(C)O)ccc1S(N)(=O)=NC(=O)Nc1c2c(cc3c1CCC3)CCC2 (single isomer, unassigned) [Example 99] | 6.00 to 6.70 |
| Cc1cc(C(C)(C)O)ccc1S(N)(=O)=NC(=O)Nc1c2c(cc3c1CCC3)CCC2 (single isomer, unassigned) [Example 100] | 4.52 to 5.30 |
| CC(C)c1cc(OC(F)F)cc(C2CC2)c1NC(=O)N=S(N)(=O)c1cnc(C(C)(C)O)s1 (single isomer, unassigned) [Example 101] | 6.70 to 7.40 |
| CC(C)c1cc(F)cc(C(C)C)c1NC(=O)N=S(N)(=O)c1cnc(C(C)(C)O)s1 (single isomer, unassigned) [Example 104] | 5.30 to 6.00 |
| CC(C)c1cc(OC(F)F)cc(C(C)C)c1NC(=O)N=S(N)(=O)c1cnc(C(C)(C)O)s1 (single isomer, unassigned) [Example 112] | 4.52 to 5.30 |
| CC(C)(O)c1csc(S(N)(=O)=NC(=O)Nc2c3c(c(C#N)c4c2CCC4)CCC3)c1 (single isomer, unassigned) [Example 113] | 7.40 to 8.10 |
| CC(C)(O)c1ncc(S(N)(=O)=NC(=O)Nc2c3c(c(OC(F)F)c4c2CCC4)CCC3)s1 (single isomer, unassigned) [Example 115] | 5.30 to 6.00 |
| CC(C)(O)c1ncc(S(N)(=O)=NC(=O)Nc2c3c(c(OC(F)F)c4c2CCC4)CCC3)s1 (single isomer, unassigned) [Example 116] | 6.70 to 7.40 |
| CN(C)Cc1ccc(S(N)(=O)=NC(=O)Nc2c3c(cc4c2CCC4)CCC3)cc1 (single isomer, unassigned) [Example 118] | 5.30 to 6.00 |
| CC(C)(O)c1cc(F)c(S(N)(=O)=NC(=O)Nc2c3c(c(F)c4c2CCC4)CCC3)s1 (single isomer, unassigned) [Example 121] | 7.40 to 8.10 |
| CC(C)(O)c1cc(F)c(S(N)(=O)=NC(=O)Nc2c3c(c(F)c4c2CCC4)CCC3)s1 (single isomer, unassigned) [Example 122] | 6.00 to 6.70 |
| Cc1oc(S(N)(=O)=NC(=O)Nc2c3c(cc4c2CCC4C)CCC3)cc1C(C)(C)O (single isomer, unassigned) [Example 123] | 6.70 to 7.40 |
| Cc1oc(S(N)(=O)=NC(=O)Nc2c3c(cc4c2CCC4C)CCC3)cc1C(C)(C)O (single isomer, unassigned) [Example 125] | 6.70 to 7.40 |

Reference: US11724992B2 (Novartis AG, priority 2017, dated 2023)
